Consider nine molecules from patent publication US7671068B2, “N-(alkoxyalkyl) carbamoyl-substituted 6-phenyl-benzonaphthyridine derivatives and their use as PDE ¾ inhibitors” (NYCOMED GmbH, priority 2004, dated 2010).

SMILES strings stand for the structures.

Holding throughout (assay type): biochemical
The target in one assay is T1, PDE3A1 (Homo sapiens, UniProt Q14432).
T1 construct: The whole ORF was subcloned into pBacPak9 (Clontech, Palo Alto) using EcoRI; made in house; host or cells: baculovirus (pBacPak9), SF21 insect cells (virus made in SF9); 1000xg supernatant of the homogenate
T1 sequence (Q14432 whole entry): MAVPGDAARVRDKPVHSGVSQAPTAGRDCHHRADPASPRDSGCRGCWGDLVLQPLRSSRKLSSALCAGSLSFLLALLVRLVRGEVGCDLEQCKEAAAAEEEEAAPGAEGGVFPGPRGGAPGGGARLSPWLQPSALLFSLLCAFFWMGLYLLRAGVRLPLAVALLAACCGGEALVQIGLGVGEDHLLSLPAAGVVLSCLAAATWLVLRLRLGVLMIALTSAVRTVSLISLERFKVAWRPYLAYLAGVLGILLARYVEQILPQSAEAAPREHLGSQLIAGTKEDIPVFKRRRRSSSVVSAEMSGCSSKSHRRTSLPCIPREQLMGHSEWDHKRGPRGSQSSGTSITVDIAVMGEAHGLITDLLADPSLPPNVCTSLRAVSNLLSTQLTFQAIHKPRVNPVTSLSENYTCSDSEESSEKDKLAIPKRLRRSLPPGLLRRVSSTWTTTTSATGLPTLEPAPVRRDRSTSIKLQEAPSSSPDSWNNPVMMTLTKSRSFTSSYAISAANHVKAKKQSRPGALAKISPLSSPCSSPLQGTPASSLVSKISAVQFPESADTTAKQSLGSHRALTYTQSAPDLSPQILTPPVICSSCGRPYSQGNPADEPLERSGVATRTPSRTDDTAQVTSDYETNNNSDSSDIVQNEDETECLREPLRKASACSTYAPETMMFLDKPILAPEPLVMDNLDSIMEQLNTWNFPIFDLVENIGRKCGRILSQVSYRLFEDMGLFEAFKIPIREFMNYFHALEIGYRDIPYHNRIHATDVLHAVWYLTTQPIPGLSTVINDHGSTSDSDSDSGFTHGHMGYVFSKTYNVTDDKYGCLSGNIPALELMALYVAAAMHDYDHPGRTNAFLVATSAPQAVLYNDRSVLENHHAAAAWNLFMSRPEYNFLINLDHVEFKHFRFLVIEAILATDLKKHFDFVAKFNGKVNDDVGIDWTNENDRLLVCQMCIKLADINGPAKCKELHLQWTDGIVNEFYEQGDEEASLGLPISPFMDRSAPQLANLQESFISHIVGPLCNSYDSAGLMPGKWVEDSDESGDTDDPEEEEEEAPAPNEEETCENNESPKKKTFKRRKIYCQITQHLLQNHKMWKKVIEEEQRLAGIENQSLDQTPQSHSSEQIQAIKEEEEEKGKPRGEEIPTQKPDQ
In words: PDE3A1 inhibition, Method B (modified SPA test, recombinant enzyme). To be noted: 0.5 μM cAMP, read-out: PDE3 [−log IC50, mol/l] (converted). From the text:
The cDNA for PDE3A1 (GB no. U36798) was isolated in 2 steps using PCR. A 3′ terminal cDNA fragment of PDE3A1 was amplified from fat cells cDNA (Clontech, Palo Alto) using primers OZ 458 (5′-[…]-3′) and OZ 457 (5′-[…]-3′). The 5′ terminal cDNA fragment of PDE3A1 was amplified from Placenta cDNA (Clontech, Palo Alto) using primers OZ 455 (5′-[…]-3′) and OZ 456 (5′-[…]-3′). The PCR products were cloned into pCR2.1-Topo (Invitrogen, Groningen, NL) under standard conditions (the manufacturer's instructions). The 3′ fragment was cut out with HindII and cloned into the HindII site of the construct carrying the 5′ fragment. The whole ORF was subcloned into pBacPak9 (Clontech, Palo Alto) using EcoRI. Aminoacid 12 is Aspartic Acid like in sequence GB no. AJ005036, aa 69 and aa 110 are respective Serine and Glycine like in both sequences GB no. AJ005036 and GB no. M91667.
(§1) The recombinant baculovirus was prepared by means of homologous recombination in SF9 insect cells. The expression plasmids were cotransfected with Bac-N-Blue (Invitrogen, Groningen, NL) or Baculo-Gold DNA (Pharmingen, Hamburg) using a standard protocol (Pharmingen, Hamburg). Wt virus-free recombinant virus supernatants were selected using plaque assay methods. After that, high-titre virus supernatants were prepared by amplifying 3 times. PDEs were expressed in SF21 cells by infecting 2×10^6 cells/ml with an MOI (multiplicity of infection) between 1 and 10 in serum-free SF900 medium (Life Technologies, Paisley, UK). The cells were cultured at 28° C. for 48-72 hours, after which they were pelleted for 5-10 min at 1000 g and 4° C.
(§2) The SF21 insect cells were resuspended, at a concentration of approx. 10^7 cells/ml, in ice-cold (4° C.) homogenization buffer (20 mM Tris, pH 8.2, containing the following additions: 140 mM NaCl, 3.8 mM KCl, 1 mM EGTA, 1 mM MgCl2, 10 mM β-mercaptoethanol, 2 mM benzamidine, 0.4 mM Pefablock, 10 μM leupeptin, 10 μM pepstatin A, 5 μM trypsin inhibitor) and disrupted by ultrasonication. The homogenate was then centrifuged for 10 min at 1000×g and the supernatant was stored at −80° C. until subsequent use (see below). The protein content was determined by the Bradford method (BioRad, Munich) using BSA as the standard.
PDE3A1 and PDE4B2 activities were inhibited by the said compounds in a modified SPA (scintillation proximity assay) test, supplied by Amersham Biosciences (see procedural instructions “phosphodiesterase [3H]cAMP SPA enzyme assay, code TRKQ 7090”), carried out in 96-well microtitre plates (MTP's). The test volume is 100 μl and contains 20 mM Tris buffer (pH 7.4), 0.1 mg of BSA (bovine serum albumin)/ml, 5 mM Mg^2+, 0.5 μM cAMP (including about 50,000 cpm of [3H]cAMP), 1 μl of the respective substance dilution in DMSO and sufficient recombinant PDE (1000×g supernatant, see above) to ensure that 10-20% of the cAMP is converted under the said experimental conditions. […] After the beads have been sedimented (>30 min), the MTP's are analyzed in commercially available luminescence detection devices. The corresponding IC50 values of the compounds for the inhibition of PDE activities are determined from the concentration-effect curves by means of non-linear regression.
(§3) The inhibitory values of the compounds 1-16 and 22-24 have been determined according to Method A. The inhibitory values of the compounds 17-21 have been determined according to Method B.

The next assay deals with T2, PDE4B2 (Homo sapiens, UniProt Q07343).
T2 construct: made in house; host or cells: baculovirus, SF21 insect cells (virus made in SF9); 1000xg supernatant of the homogenate
T2 sequence (Q07343 1-564 isoform Q07343-2): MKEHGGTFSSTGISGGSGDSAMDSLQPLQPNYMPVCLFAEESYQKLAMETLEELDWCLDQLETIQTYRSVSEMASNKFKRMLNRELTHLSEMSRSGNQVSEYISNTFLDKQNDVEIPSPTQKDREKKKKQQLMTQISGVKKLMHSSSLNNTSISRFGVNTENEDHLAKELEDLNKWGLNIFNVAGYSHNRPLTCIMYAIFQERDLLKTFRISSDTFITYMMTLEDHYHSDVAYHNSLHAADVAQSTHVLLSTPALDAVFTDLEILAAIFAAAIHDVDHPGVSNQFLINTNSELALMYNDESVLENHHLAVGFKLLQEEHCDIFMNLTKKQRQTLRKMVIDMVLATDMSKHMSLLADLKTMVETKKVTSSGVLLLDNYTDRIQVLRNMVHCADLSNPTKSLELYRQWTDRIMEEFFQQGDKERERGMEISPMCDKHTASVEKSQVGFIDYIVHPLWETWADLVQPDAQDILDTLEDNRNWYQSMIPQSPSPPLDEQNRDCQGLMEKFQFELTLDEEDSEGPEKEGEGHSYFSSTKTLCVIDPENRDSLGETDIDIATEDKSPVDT
In words: PDE4B2 inhibition, Method B (modified SPA test, recombinant enzyme). The following applies: 0.5 μM cAMP, read-out: PDE4 [−log IC50, mol/l] (converted). The method, then: The PDE4B2 (GB no. M97515) was a gift of Prof. M. Conti (Stanford University, USA). It was amplified from the original plasmid (pCMV5) via PCR with primers Rb9 (5′-[…]-3′) and Rb10 (5′-[…]-3′) and cloned into the pCR-Bac vector (Invitrogen, Groningen, NL).
as §1, §2
PDE3A1 and PDE4B2 activities were inhibited by the said compounds in a modified SPA (scintillation proximity assay) test, supplied by Amersham Biosciences (see procedural instructions “phosphodiesterase [3H]cAMP SPA enzyme assay, code TRKQ 7090”), carried out in 96-well microtitre plates (MTP's). The test volume is 100 μl and contains 20 mM Tris buffer (pH 7.4), 0.1 mg of BSA (bovine serum albumin)/ml, 5 mM Mg^2+, 0.5 μM cAMP (including about 50,000 cpm of [3H]cAMP), 1 μl of the respective substance dilution in DMSO and sufficient recombinant PDE (1000×g supernatant, see above) to ensure that 10-20% of the cAMP is converted under the said experimental conditions. […] After a preincubation of 5 min at 37° C., the reaction is started by adding the substrate (cAMP) and the assays are incubated for a further 15 min; after that, they are stopped by adding SPA beads (50 μl). In accordance with the manufacturer's instructions, the SPA beads had previously been resuspended in water, but were then diluted 1:3 (v/v) in water; the diluted solution also contains 3 mM IBMX to ensure a complete PDE activity stop. After the beads have been sedimented (>30 min), the MTP's are analyzed in commercially available luminescence detection devices. The corresponding IC50 values of the compounds for the inhibition of PDE activities are determined from the concentration-effect curves by means of non-linear regression.
as §3

Assay [1] deals with T3, PDE3 (cGMP-inhibited) in homogenates of human platelets (Homo sapiens, UniProt Q14432).
T3 construct: investigated in homogenates of human platelets; from tissue; host or cells: homogenates of human platelets
T3 sequence (Q14432 whole entry): as the sequence (Q14432 whole entry) above
In words: PDE3 inhibition, Method A (radioactive PDE assay after Thompson et al.). The following applies: read-out: PDE3 [−log IC50, mol/l] (converted). The procedure: (§4) The PDE activity was determined according to Thompson et al. (Adv Cycl Nucl Res 10: 69-92, 1979) with some modifications (Bauer and Schwabe, Naunyn-Schmiedeberg's Arch Pharmacol 311: 193-198, 1980). The test samples contained 20 mM Tris (pH 7.4), 5 mM MgCl2, 0.5 μM CAMP or cGMP, [^3H]cAMP or [^3H]cGMP (about 30 000 cpm/sample), the PDE isoenzyme-specific additives described in greater detail below, the indicated concentrations of inhibitor and an aliquot of the enzyme solution in a total sample volume of 200 μl. Dilution series of the compounds according to the invention were prepared in DMSO and further diluted in the samples [1:100 (v/v)], to give the desired end concentration of the inhibitors at a DMSO concentration of 1% (v/v), which for its part has only a minute effect on PDE activity.
(§5) After preincubation at 37° C. for 5 minutes, the reaction was started by addition of the substrate (CAMP or cGMP). The samples were incubated at 37° C. for a further 15 min. The reaction was terminated by addition of 50 μl 0.2 N HCl. After cooling on ice for 10 minutes and addition of 25 μg 5′-nucleotidase (snake venom from Crotalus atrox), the mixture was again incubated at 37° C. for 10 min and the samples were then applied to QAE Sephadex A-25 columns (sample volume 1 ml). The columns were eluted with 2 ml of 30 mM ammonium formate (pH 6.0). The radioactivity of the eluate was measured and corrected by the corresponding blank values (measured in the presence of denatured protein); the blank values were less than 5% of the total radioactivity. In no case did the proportion of hydrolyzed nucleotide exceed 30% of the original substrate concentration.
PDE3 (cGMP-inhibited) was investigated in homogenates of human platelets (see Schudt et al., Biochem Pharmacol 1991: 42, 153-162) using CAMP or cGMP as substrate.
(§6) The IC50 values were determined from the concentration-inhibition curves by nonlinear regression.
as §3

Assay [2] deals with PDE4 (cAMP-specific) in the cytosol of human polymorphonuclear leukocytes (PMNL). The assay can be described thus: PDE4 inhibition, Method A (radioactive PDE assay after Thompson et al.). The following applies: cAMP substrate, motapizone 1 μM. The procedure:
as §4, §5
PDE4 (cAMP-specific) was investigated in the cytosol of human polymorphonuclear leukocytes (PMNL) [isolated from leukocyte concentrates, see Schudt et al., Arch Pharmacol 1991: 344, 682-690] using cAMP as substrate. The PDE3 inhibitor motapizone (1 μM) was used to suppress the PDE3 activity emanating from contaminated platelets.
as §6, §3

In the case of `CCOc1cc2c(cc1OC)C(c1ccc(C(=O)N(C(C)C)[C@@H](C)COCc3ccc(OC)cc3)cc1)=N[C@@H]1CCN(C)C[C@H]21` [Compound 20, 4-((4aR,10bS)-9-Ethoxy-8-methoxy-2-methyl-1,2,3,4,4a,10b-hexahydro-benzo [c][1,6]naphthyridin-6-yl)-N-isopropyl-N—[(S)-2-(4-methoxy-benzyloxy)-1-methyl-ethyl]-benzamide], the IC50 was 39.8 nM at PDE3A1 and 0.316 nM at PDE4B2.

With `CCOc1cc2c(cc1OC)C(c1ccc(C(=O)N(C(C)C)[C@@H](C)COCc3ccc(C(F)(F)F)cc3)cc1)=N[C@@H]1CCN(C)C[C@H]21` [Compound 18, 4-((4aR,10bS)-9-Ethoxy-8-methoxy-2-methyl-1,2,3,4,4a,10b-hexahydro-benzo [c][1,6]naphthyridin-6-yl)-N-isopropyl-N—[(S)-1-methyl-2-(4-trifluoromethyl-benzyloxy)-ethyl]-benzamide], the figures for the IC50 at PDE3A1 and at PDE4B2 were 79.4 nM and 1 nM, respectively.

Turning to `CCOc1cc2c(cc1OC)C(c1ccc(C(=O)N(C(C)C)[C@@H](C)COCc3ccc(C#N)cc3)cc1)=N[C@@H]1CCN(C)C[C@H]21` [Compound 19, N—[(S)-2-(4-Cyano-benzyloxy)-1-methyl-ethyl]-4-((4aR,10bS)-9-ethoxy-8-methoxy-2-methyl-1,2,3,4,4a,10b-hexahydro-benzo[c][1,6]naphthyridin-6-yl)-N-isopropyl-benzamide], the IC50 on PDE3A1 was 25.1 nM; at PDE4B2 it was 0.398 nM.

Regarding `CCOc1cc2c(cc1OC)C(c1ccc(C(=O)N(C(C)C)[C@@H](C)COCCCc3ccccc3)cc1)=N[C@@H]1CCN(C)C[C@H]21` [Compound 21, 4-((4aR,10bS)-9-Ethoxy-8-methoxy-2-methyl-1,2,3,4,4a,10b-hexahydro-benzo [c][1,6]naphthyridin-6-yl)-N-isopropyl-N—[(S)-1-methyl-2-(3-phenyl-propoxy)-ethyl]-benzamide], the IC50 on PDE3A1 was 39.8 nM; on PDE4B2 it was 2 nM.

Turning to `CCOc1cc2c(cc1OC)C(c1ccc(C(=O)N(C(C)C)[C@@H](C)COCc3cc(OC)cc(OC)c3)cc1)=N[C@@H]1CCN(C)C[C@H]21` [Compound 17, N—[(S)-2-(3,5-Dimethoxy-benzyloxy)-1-methyl-ethyl]-4-((4aR,10bS)-9-ethoxy-8-methoxy-2-methyl-1,2,3,4,4a,10b-hexahydro-benzo[c][1,6]naphthyridin-6-yl)-N-isopropyl-benzamide], the IC50 on PDE3A1 was 39.8 nM; on PDE4B2 it was 0.316 nM.

Regarding `CCCCOCCCNC(=O)c1ccc(C2=N[C@@H]3CCN(C)C[C@@H]3c3cc(OCC)c(OC)cc32)cc1.Cl` [Compound 16, N-(3-Butoxy-propyl)-4-((4aR,10bS)-9-ethoxy-8-methoxy-2-methyl-1,2,3,4,4a,10b-hexahydro-benzo [c][1,6]naphthyridin-6-yl)-benzamide; hydrochloride], the IC50 in assay [1] is 398 nM. For the same molecule, the “PDE4 [−log IC50, mol/l]” value in assay [2] worked out at 8.5 mol/l.

In the case of `CCOc1cc2c(cc1OC)C(c1ccc(C(=O)N(C)[C@H](COCc3ccccc3)CC(C)C)cc1)=N[C@@H]1CCN(C)C[C@H]21` [Compound 22, N—((S)-1-Benzyloxymethyl-3-methyl-butyl)-4-((4aR,10bS)-9-ethoxy-8-methoxy-2-methyl-1,2,3,4,4a,10b-hexahydro-benzo[c][1,6]naphthyridin-6-yl)-N-methyl-benzamide], the IC50 in assay [1] is 63.1 nM. The “PDE4 [−log IC50, mol/l]” value in assay [2] is on record as 9.4 mol/l.

`CCOc1cc2c(cc1OC)C(c1ccc(C(=O)N[C@@H](C)COCc3ccccc3)cc1)=N[C@@H]1CCN(C)C[C@H]21` [Compound 24, N—((S)-2-Benzyloxy-1-methyl-ethyl)-4-((4aR,10bS)-9-ethoxy-8-methoxy-2-methyl-1,2,3,4,4a,10b-hexahydro-benzo[c][1,6]naphthyridin-6-yl)-benzamide]: the IC50 in assay [1] is 251 nM. Also, in assay [2], the “PDE4 [−log IC50, mol/l]” value turned out to be 9.0 mol/l.

As for `CCOc1cc2c(cc1OC)C(c1ccc(C(=O)N(C(C)C)[C@@H](C)COC)cc1)=N[C@@H]1CCN(C)C[C@H]21.Cl` [Compound 11, 4-((4aR,10bS)-9-Ethoxy-8-methoxy-2-methyl-1,2,3,4,4a,10b-hexahydro-benzo [c][1,6]naphthyridin-6-yl)-N-isopropyl-N-((S)-2-methoxy-1-methyl-ethyl)-benzamide; hydrochloride], in assay [1], the IC50 was 79.4 nM. For the same molecule, the “PDE4 [−log IC50, mol/l]” value in assay [2] came out at 9.0 mol/l.
